Measurements: patent US20140377340A1, “HLA-DR BINDING PEPTIDES AND THEIR USES” (priority 2007, published 2014)

Experiments:
[1] = system: 15 different HLA-DR molecules; test: HLA-DR binding assays, panel of 15 different HLA-DR molecules (breadth of binding); conditions: number of the 15 HLA-DR molecules bound (binders: 1000 nM or better)
purified HLA DRB1*1302 = target: T1, purified HLA DRB1*1302 (Homo sapiens, UniProt P01903+P01911, A100E/A169T/K41T/L162R/M171V/P40S/Q125H/Q178H/Q39Y/Q99D/R42S/S66N/T262R/V115G/W38E/Y61H); test: HLA-DR radioligand binding inhibition assay, DRB1*1302
T1 construct: purified from EBV transformed homozygous cell lines or single MHC allele transfected 721.221, C1R, or fibroblast lines; made in house
Procedure: (§1) Instead, wells of an opaque white 96-well Optiplate (Packard) are coated with 3 μg (100 μl@ 30 μg/ml) of HLA-specific antibody (Ab) that “capture” complexes of radiolabeled MHC and unlabeled peptide transferred from the molecular binding assay plate in 100 μl of 0.05% NP40/PBS. After a 3-hour incubation period, the supernatant is decanted and scintillation fluid (Microscint 20) added. Captured complexes are then measured on a microplate scintillation and luminescence counter (TopCount NXTTM; Packard).
(§2) HLA-DR purification. Fifteen distinct HLA-DR molecules were used in quantitative assays to measure the binding of peptides to solubilized HLA-DR molecules. […] Briefly, columns of inactivated Sepharose CL4B and Protein A Sepharose were used as pre-columns. HLA-DR molecules were captured by passage of lysates over LB3.1 monoclonal antibody (anti-HLA-DRA) columns. Antibody columns were washed with 10 mM Tris-HCL, pH8.0 with 1% (v/v) NP-40, followed by PBS containing 0.4% (w/v) n-octylglucoside.
(§3) Briefly, 1-10 nM of radiolabeled peptide was co-incubated for 2 days at either room temperature or 37° C. with 1 μM to 1 nM purified HLA-DR molecules in the presence of a cocktail of protease inhibitors. Assays were performed at various pH conditions, ranging from pH 4 to pH 7. […] After incubation, the percentage of HLA-DR-bound radioactivity is determined by capturing HLA-DR/peptide complexes on Optiplates (Packard Instruments, Meriden, Conn.) coated with the LB3.1 antibody and determining bound counts per minute using the TopCount microscintillation counter (Packard Instruments).

purified HLA DRB1*0101 = target: T2, purified HLA DRB1*0101 (Homo sapiens, UniProt P01903+P01911, A100R/D57E/F55L/F60I/F76Y/I96L/L162R/M171V/P40L/Q125E/R42F/V115G/Y59C); test: HLA-DR radioligand binding inhibition assay, DRB1*0101; conditions: IC50 nM purified HLA DRB1 *0101, purified HLA DRB1*0101
T2 construct: purified from EBV transformed homozygous cell lines or single MHC allele transfected 721.221, C1R, or fibroblast lines; made in house
Procedure: as §1, §2, §3

purified HLA DRB1*0405 = target: T3, purified HLA DRB1*0405 (Homo sapiens, UniProt P01903+P01911, A100R/A169T/D86S/F76Y/I96L/K127E/L162R/M171V/N62H/P40V/Q125Y/R42H/S133A/S149N/S66Y/V115G/V209L/W38E); test: HLA-DR radioligand binding inhibition assay, DRB1*0405; conditions: IC50 nM purified HLA DRB1 *0405, purified HLA DRB1*0405
T3 construct: purified from EBV transformed homozygous cell lines or single MHC allele transfected 721.221, C1R, or fibroblast lines; made in house
Procedure: as §1, §2, §3

purified HLA DRB4*0101 = target: T4, purified HLA DRB4*0101 (Homo sapiens, UniProt P01903+P13762, G164S); test: HLA-DR radioligand binding inhibition assay, DRB4*0101; conditions: IC50 nM purified HLA DRB4 *0101, purified HLA DRB4*0101
T4 construct: purified from EBV transformed homozygous cell lines or single MHC allele transfected 721.221, C1R, or fibroblast lines; made in house
Procedure: as §1, §2, §3

purified HLA DRB1*1101 = target: T5, purified HLA DRB1*1101 (Homo sapiens, UniProt P01903+P01911, A100R/A169T/A87E/I96F/K41T/L162R/M171V/P40S/Q125H/Q178H/Q39Y/Q99D/R42S/S66Y/T262R/V115G/W38E); test: HLA-DR radioligand binding inhibition assay, DRB1*1101; conditions: IC50 nM purified HLA DRB1 *1101, purified HLA DRB1*1101
T5 construct: purified from EBV transformed homozygous cell lines or single MHC allele transfected 721.221, C1R, or fibroblast lines; made in house
T5 sequence (P01903 26-254, other chains not shown): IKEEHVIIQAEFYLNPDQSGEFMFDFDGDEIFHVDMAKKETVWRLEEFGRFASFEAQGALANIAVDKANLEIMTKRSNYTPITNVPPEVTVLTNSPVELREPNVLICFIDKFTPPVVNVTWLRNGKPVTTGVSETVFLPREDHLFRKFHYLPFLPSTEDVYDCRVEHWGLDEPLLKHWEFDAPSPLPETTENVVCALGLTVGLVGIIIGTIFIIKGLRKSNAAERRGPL
Procedure: as §1, §2, §3

purified HLA DRB1*0401 = target: T6, purified HLA DRB1*0401 (Homo sapiens, UniProt P01903+P01911, A100K/A169T/F76Y/I96L/K127E/L162R/M171V/N62H/P40V/Q125Y/R42H/S133A/S149N/S66Y/V115G/V209L/W38E); test: HLA-DR radioligand binding inhibition assay, DRB1*0401; conditions: IC50 nM purified HLA DRB1 *0401, purified HLA DRB1*0401
T6 construct: purified from EBV transformed homozygous cell lines or single MHC allele transfected 721.221, C1R, or fibroblast lines; made in house
Summary of the method: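 The probe, 1-10 nM radiolabeled peptide, was incubated with 1 μM to 1 nM HLA-DR for 2 days in the presence of protease inhibitors.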

Compound	Total XRN [1]	further results
CC[C@H](C)[C@H](NC(=O)[C@H](CC(C)C)NC(=O)[C@H](C)NC(=O)[C@H](CC(C)C)NC(=O)CNC(=O)[C@H](CO)NC(=O)CNC(=O)[C@H](CC(C)C)NC(=O)[C@H](CCC(=O)O)NC(=O)[C@H](CCCNC(=N)N)NC(=O)[C@H](CC(C)C)NC(=O)[C@H](CO)NC(=O)[C@H](CCCNC(=N)N)NC(=O)[C@@H](N)CC(C)C)C(=O)N[C@@H](Cc1c[nH]cn1)C(=O)O [Peptide 9019.0057]	12	–
CSCC[C@H](NC(=O)[C@@H](NC(=O)[C@H](Cc1ccc(O)cc1)NC(=O)[C@H](C)N)C(C)C)C(=O)N[C@@H](C)C(=O)NCC(=O)N[C@H](C(=O)NCC(=O)N[C@@H](CO)C(=O)N1CCC[C@H]1C(=O)N[C@@H](Cc1ccc(O)cc1)C(=O)N[C@H](C(=O)N[C@@H](CO)C(=O)N[C@@H](CCCNC(=N)N)C(=O)N[C@@H](CC(C)C)C(=O)O)C(C)C)C(C)C [Peptide 9019.0077]	–	IC50 (purified HLA DRB1*1302): 402 nM; IC50 (purified HLA DRB1*0101): 92 nM; IC50 (purified HLA DRB1*0405): 596 nM; IC50 (purified HLA DRB4*0101): 5060 nM; IC50 (purified HLA DRB1*1101): 1800 nM
CC[C@H](C)[C@H](NC(=O)[C@@H](NC(=O)[C@H](CC(C)C)NC(=O)[C@H](CCCCN)NC(=O)[C@H](C)NC(=O)[C@@H](N)[C@@H](C)O)[C@@H](C)O)C(=O)N[C@@H](CCC(=O)O)C(=O)N[C@@H](CO)C(=O)N[C@H](C(=O)N1CCC[C@H]1C(=O)N[C@@H](Cc1ccccc1)C(=O)N[C@@H](CC(N)=O)C(=O)N[C@H](C(=O)N[C@@H](C)C(=O)N[C@@H](CCC(=O)O)C(=O)O)C(C)C)[C@@H](C)O [Peptide 9019.0106]	9	–
CC[C@H](C)[C@H](NC(=O)[C@H](CCC(N)=O)NC(=O)[C@H](CCCNC(=N)N)NC(=O)[C@H](CC(N)=O)NC(=O)CNC(=O)[C@H](CC(=O)O)NC(=O)[C@@H](NC(=O)[C@H](CCCNC(=N)N)NC(=O)[C@H](CCC(=O)O)NC(=O)CNC(=O)[C@H](CCCCN)NC(=O)[C@H](Cc1ccc(O)cc1)NC(=O)[C@H](Cc1c[nH]c2ccccc12)NC(=O)[C@H](CO)NC(=O)[C@@H](N)Cc1ccc(O)cc1)C(C)C)C(=O)O [Peptide 9019.0108]	8	–
CC[C@H](C)[C@H](NC(=O)[C@H](CC(C)C)NC(=O)[C@H](CC(C)C)NC(=O)[C@H](CO)NC(=O)[C@H](C)NC(=O)[C@H](CC(N)=O)NC(=O)[C@@H]1CCCN1C(=O)[C@H](Cc1ccc(O)cc1)NC(=O)[C@@H](NC(=O)[C@@H](NC(=O)[C@H](CCC(=O)O)NC(=O)[C@H](CCCNC(=N)N)NC(=O)CN)[C@@H](C)CC)[C@@H](C)CC)C(=O)N[C@@H](CCC(N)=O)C(=O)N[C@@H](CC(N)=O)C(=O)O [Peptide 9019.0112]	10	–
CC[C@H](C)[C@H](NC(=O)[C@@H](NC(=O)[C@H](Cc1c[nH]cn1)NC(=O)[C@H](CC(C)C)NC(=O)[C@@H](NC(=O)[C@H](CC(C)C)NC(=O)[C@@H](N)Cc1ccccc1)[C@@H](C)O)C(C)C)C(=O)N[C@@H](CCCCN)C(=O)N[C@@H](CO)C(=O)N[C@@H](CC(=O)O)C(=O)N[C@@H](CC(C)C)C(=O)N[C@H](C(=O)N[C@@H](CC(N)=O)C(=O)N[C@@H](CCC(=O)O)C(=O)N[C@@H](CCC(=O)O)C(=O)O)C(C)C [Peptide 9019.0114]	11	–
CC[C@H](C)[C@H](NC(=O)[C@H](CC(N)=O)NC(=O)[C@@H]1CCCN1C(=O)[C@@H](NC(=O)[C@H](Cc1ccccc1)NC(=O)[C@H](CC(C)C)NC(=O)[C@H](CCC(=O)O)NC(=O)[C@@H](N)CCC(N)=O)[C@@H](C)CC)C(=O)N[C@H](C(=O)N[C@H](C(=O)N[C@@H](CC(N)=O)C(=O)N[C@@H](CC(N)=O)C(=O)N[C@@H](CO)C(=O)NCC(=O)N[C@@H](CO)C(=O)O)C(C)C)[C@@H](C)O [Peptide 9019.0123]	9	–
CC(C)C[C@H](NC(=O)[C@@H](N)Cc1ccc(O)cc1)C(=O)N[C@@H](Cc1c[nH]c2ccccc12)C(=O)N[C@@H](Cc1c[nH]c2ccccc12)C(=O)N[C@H](C(=O)N[C@@H](CC(N)=O)C(=O)N[C@@H](CC(N)=O)C(=O)N[C@@H](CCC(N)=O)C(=O)N[C@@H](CO)C(=O)N[C@@H](CC(C)C)C(=O)N1CCC[C@H]1C(=O)N[C@H](C(=O)N[C@@H](CO)C(=O)N1CCC[C@H]1C(=O)N[C@@H](CCCNC(=N)N)C(=O)O)C(C)C)C(C)C [Peptide 9019.0126]	10	–
CC(C)C[C@H](NC(=O)[C@H](CO)NC(=O)[C@H](CC(C)C)NC(=O)[C@H](CC(N)=O)NC(=O)[C@@H](NC(=O)CNC(=O)[C@@H]1CCCN1C(=O)[C@H](CCCNC(=N)N)NC(=O)[C@H](Cc1ccc(O)cc1)NC(=O)[C@H](Cc1ccc(O)cc1)NC(=O)[C@@H](NC(=O)[C@H](Cc1ccc(O)cc1)NC(=O)[C@@H](N)CO)[C@@H](C)O)C(C)C)C(=O)N[C@@H](CO)C(=O)N[C@@H](CS)C(=O)O [Peptide 9019.0128]	10	–
CC(C)C[C@H](NC(=O)[C@@H](N)Cc1ccc(O)cc1)C(=O)N[C@@H](Cc1c[nH]c2ccccc12)C(=O)N[C@@H](Cc1c[nH]c2ccccc12)C(=O)N[C@H](C(=O)N[C@@H](CC(N)=O)C(=O)NCC(=O)N[C@@H](CCC(N)=O)C(=O)N[C@@H](CO)C(=O)N[C@@H](CC(C)C)C(=O)N1CCC[C@H]1C(=O)N[C@H](C(=O)N[C@@H](CO)C(=O)N1CCC[C@H]1C(=O)N[C@@H](CCCNC(=N)N)C(=O)O)C(C)C)C(C)C [Peptide 9019.0134]	–	IC50 (purified HLA DRB4*0101): 4300 nM; IC50 (purified HLA DRB1*1101): 3200 nM; IC50 (purified HLA DRB1*0401): 2.5 nM
CC(C)C[C@H](NC(=O)[C@@H]1CCCN1C(=O)[C@H](CC(C)C)NC(=O)[C@H](CC(C)C)NC(=O)[C@@H]1CCCN1C(=O)[C@H](CC(C)C)NC(=O)[C@H](CC(C)C)NC(=O)[C@@H]1CCCN1C(=O)[C@@H]1CCCN1C(=O)[C@@H]1CCCN1C(=O)[C@@H]1CCCN1C(=O)[C@H](CC(C)C)NC(=O)[C@@H]1CCCN1C(=O)[C@H](CC(C)C)NC(=O)[C@H](C)N)C(=O)O [Peptide 9019.0174]	8	–
CC[C@H](C)[C@H](NC(=O)[C@H](CCCNC(=N)N)NC(=O)[C@H](CCC(=O)O)NC(=O)[C@H](CC(C)C)NC(=O)[C@@H](NC(=O)[C@H](CCC(N)=O)NC(=O)[C@H](CC(=O)O)NC(=O)[C@@H](N)CC(C)C)C(C)C)C(=O)N[C@@H](CO)C(=O)N[C@H](C(=O)N[C@@H](CCSC)C(=O)N[C@@H](CCCNC(=N)N)C(=O)N[C@@H](CC(C)C)C(=O)N1CCC[C@H]1C(=O)N[C@@H](CC(=O)O)C(=O)O)[C@@H](C)O [Peptide 9019.0189]	12	–
CSCC[C@H](NC(=O)[C@H](CCCCN)NC(=O)[C@H](CS)NC(=O)[C@H](CCC(N)=O)NC(=O)[C@H](CCCCN)NC(=O)[C@H](CC(C)C)NC(=O)[C@H](CC(N)=O)NC(=O)[C@H](Cc1ccc(O)cc1)NC(=O)[C@H](CC(C)C)NC(=O)CN)C(=O)N[C@@H](CO)C(=O)N[C@@H](CC(C)C)C(=O)N[C@@H](CC(N)=O)C(=O)NCC(=O)N[C@@H](CCC(N)=O)C(=O)O [Peptide 9019.0191]	6	–
EVLILVHNLPQHLFQ [Peptide 9019.0107]	14	–
